Laboratory results from patent EP4782450A1, “NOVEL SKELETAL DERIVATIVE EFFECTIVE FOR HER2 MUTATION, AND PHARMACEUTICAL COMPOSITION COMPRISING SAME” (Hanmi Pharm. Co., Ltd., priority 2023, dated 2025).

Assays:
[1] = test system: Ba/F3 HER2 A775insYVMA; experiment: Growth inhibition of Ba/F3 cells engineered to overexpress HER2 A775_G776insYVMA (CellTiter-Glo luminescence); assay type: cell-based; conditions: Mus musculus, BaF3, 72 hours, concentrations 1000 to 0.32 nM, read-out: Ba/F3 HER2^YVMA GI50 class
Summary of the method: (§1)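 Ba/F3 cells overexpressing HER2 A775_G776insYVMA (1000–0.32 nM) or wild-type EGFR (10000–8 nM) treated 72 h at 37°C in RPMI/10% FBS. Viability by CellTiter-Glo luminescence; GI50 by nonlinear regression with untreated growth set at 100%.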

[2] = test system: wild-type EGFR overexpressing Ba/F3 cells; experiment: Growth inhibition of Ba/F3 cells engineered to overexpress wild-type EGFR (CellTiter-Glo luminescence); assay type: cell-based; conditions: Mus musculus, BaF3, 72 hours, concentrations 10000 to 8 nM, read-out: Ba/F3 EGFR^WT GI50 class
Summary of the method: as §1

## C=CC(=O)N(C)C/C=C/c1ccc2ncnc(Nc3ccc(Oc4ccc5c(c4)ncn5C)c(C)c3F)c2n1 [Example 42, (E)-N-(3-(4-((2-fluoro-3-methyl-4-((1-methyl-1H-benzo[d]imidazol-5-yl)oxy)phenyl)amino)pyrido[3,2-d]pyrimidin-6-yl)allyl)-N-methylacrylamide]
[1]
  GI50: < 100 nM
[2]
  GI50: 1000 to 5000 nM

## C=CC(=O)N(C)CC#Cc1ncc2ncnc(Nc3ccc(Oc4ccn5ncnc5c4)c(C)c3)c2n1 [Example 69, N-(3-(8-((4-([1,2,4]triazolo[1,5-a]pyridin-7-yloxy)-3-methylphenyl)amino)pyrimido[5,4-d]pyrimidin-2-yl)prop-2-yn-1-yl)-N-methylacrylamide]
[1]
  GI50: 100 to 1000 nM
[2]
  GI50: 100 to 1000 nM

## C=CC(=O)N(C)CC#Cc1ccc2ncc(C#N)c(Nc3ccc(Oc4ccn5ncnc5c4)c(C)c3)c2c1 [Example 70, N-(3-(4-((4-([1,2,4]triazolo[1,5-a]pyridin-7-yloxy)-3-methylphenyl)amino)-3-cyanoquinolin-6-yl)prop-2-yn-1-yl)-N-methylacrylamide]
[1]
  GI50: 100 to 1000 nM
[2]
  GI50: 1000 to 5000 nM

## C=CC(=O)NCCOc1ccc2ncnc(Nc3ccc(Oc4ccc5c(c4)ncn5C)c(C)c3)c2n1 [Example 7, N-(2-((4-((3-methyl-4-((1-methyl-1H-benzo[d]imidazol-5-yl)oxy)phenyl)amino)pyrido[3,2-d]pyrimidin-6-yl)oxy)ethyl)acrylamide]
[1]
  GI50: 100 to 1000 nM
[2]
  GI50: > 5000 nM
